ChEMBL document CHEMBL5653626 (ChemMedChem, 2016)

How the values were obtained:
[1] = target: T1, Solute carrier family 2, facilitated glucose transporter member 4 (Homo sapiens, UniProt P14672); experiment: Inhibition of human GLUT4 expressed in CHO cells assessed as reduction in glucose uptake by measuring decrease in ATP production preincubated for 20 mins followed by glucose addition and measured after 15 mins in presence of oxidative phosphorylation inhibitor rotenone by CellTiter-Glo Luminescent Cell Viability Assay; assay type: cell-based
T1 sequence (P14672 whole entry): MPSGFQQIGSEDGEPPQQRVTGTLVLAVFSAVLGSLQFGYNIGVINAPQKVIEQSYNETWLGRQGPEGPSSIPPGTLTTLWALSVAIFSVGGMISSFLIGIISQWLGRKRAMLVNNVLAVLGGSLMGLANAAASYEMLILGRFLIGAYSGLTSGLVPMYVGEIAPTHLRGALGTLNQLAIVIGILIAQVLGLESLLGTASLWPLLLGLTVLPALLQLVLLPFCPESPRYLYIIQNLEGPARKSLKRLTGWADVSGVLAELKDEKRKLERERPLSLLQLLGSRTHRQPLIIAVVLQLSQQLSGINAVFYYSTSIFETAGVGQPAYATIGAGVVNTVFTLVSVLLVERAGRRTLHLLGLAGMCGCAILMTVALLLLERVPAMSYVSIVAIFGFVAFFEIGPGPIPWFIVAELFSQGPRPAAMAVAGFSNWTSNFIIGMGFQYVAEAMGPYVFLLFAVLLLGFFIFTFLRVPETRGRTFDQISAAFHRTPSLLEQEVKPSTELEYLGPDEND

[2] = target: T2, Solute carrier family 2, facilitated glucose transporter member 1 (Homo sapiens, UniProt P11166); experiment: Inhibition of human GLUT1 expressed in human DLD-1 cells assessed as reduction in glucose uptake by measuring decrease in ATP production incubated for 15 mins in presence of oxidative phosphorylation inhibitor rotenone by CellTiter-Glo Luminescent Cell Viability Assay; assay type: cell-based
T2 sequence (P11166 whole entry): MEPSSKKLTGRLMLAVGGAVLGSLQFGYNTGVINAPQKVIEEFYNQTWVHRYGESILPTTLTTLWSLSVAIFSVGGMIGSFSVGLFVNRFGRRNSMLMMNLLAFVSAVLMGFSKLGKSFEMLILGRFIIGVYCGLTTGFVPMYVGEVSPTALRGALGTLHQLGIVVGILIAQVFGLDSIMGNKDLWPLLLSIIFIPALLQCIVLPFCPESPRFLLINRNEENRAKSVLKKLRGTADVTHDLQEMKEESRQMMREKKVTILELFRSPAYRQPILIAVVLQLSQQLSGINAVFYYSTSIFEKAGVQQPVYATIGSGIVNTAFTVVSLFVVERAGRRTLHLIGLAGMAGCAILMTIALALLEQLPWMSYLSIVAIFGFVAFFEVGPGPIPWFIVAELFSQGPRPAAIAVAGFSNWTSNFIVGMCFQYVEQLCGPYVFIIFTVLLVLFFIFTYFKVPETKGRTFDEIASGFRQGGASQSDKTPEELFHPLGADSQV

[3] = Clearance in mouse liver microsomes; assay type: ADME, Microsome
[4] = Clearance in rat hepatocytes; assay type: ADME, cell-based, Hepatocyte
[5] = Clearance in human liver microsomes; assay type: ADME, Microsome

Structure (SMILES)	IC50 [1] [nM]	IC50 [2] [nM]	other results
Cc1cccc(Cn2nc(C(F)(F)F)c(NC(=O)c3cc(C(N)=O)nc4cc(F)ccc34)c2C)c1	610	11	
Cc1c(NC(=O)c2cc(C(N)=O)nc3cc(F)ccc23)c(C(F)(F)F)nn1Cc1cccc(C#N)c1	950		
Cc1nn(Cc2ccc(F)cc2)c(C)c1N		960	
Cc1nn(CCc2ccc(F)cc2)c(C)c1NC(=O)c1cc(C(F)(F)F)nc2ccc(Br)cc12	340		
Cc1nn(Cc2ccc(C#N)cc2)c(C)c1NC(=O)c1cc(C(F)(F)F)nc2ccc(Br)cc12			CLhep predicted [3]: 56.7 mL/min/kg
Cc1nn(Cc2ccc(C#N)cn2)c(C)c1NC(=O)c1cc(C(F)(F)F)nc2ccc(Br)cc12		2	
Cc1ccccc1Cn1nc(C(F)(F)F)c(NC(=O)c2cc(C(N)=O)nc3cc(F)ccc23)c1C		7	
Cc1nn(Cc2ccc(C#N)cc2F)c(C)c1NC(=O)c1cc(C(F)(F)F)nc2ccc(Br)cc12	870	8	
Cc1c(NC(=O)c2cc(-c3ncnn3C)nc3ccccc23)c(C(F)(F)F)nn1Cc1ccc(C#N)cc1			CLhep predicted [3]: 35 mL/min/kg; CLhep predicted [4]: 31.7 mL/min/kg
Cc1nc(C)c(-c2cc(C(=O)Nc3c(C(F)(F)F)nn(Cc4ccc(C#N)cc4)c3C)c3ccccc3n2)s1	910	760	
Cc1c(NC(=O)c2cc(C(N)=O)nc3scnc23)c(C(F)(F)F)nn1Cc1ccc(C#N)cc1	280	35	
Cc1nn(-c2ccc(F)cc2)c(C)c1NC(=O)c1cc(C(F)(F)F)nc2ccc(Br)cc12		470	
Cc1c(NC(=O)c2ccnc(C(N)=O)c2)c(C(F)(F)F)nn1Cc1ccc(C#N)cc1		200	
Cc1c(NC(=O)c2cc(C(N)=O)nc3cc(F)ccc23)c(C(F)(F)F)nn1Cc1ccc(C(F)(F)F)cc1	910	9	
CCc1ccc(Cn2nc(C(F)(F)F)c(NC(=O)c3cc(C(N)=O)nc4cc(F)ccc34)c2C)cc1			CLhep predicted [5]: 16.5 mL/min/kg; CLhep predicted [4]: 48.3 mL/min/kg
Cc1c(NC(=O)c2cc(C(N)=O)nc3cc(F)ccc23)c(C(F)(F)F)nn1Cc1ccccc1C#N	88	3	
Cc1nn(Cc2ccc(F)cc2)c(C)c1NC(=O)c1cc(C(F)(F)F)nc2ccc(Br)cc12			CLhep predicted [3]: 75 mL/min/kg; CLhep predicted [4]: 48.3 mL/min/kg
Cc1c(NC(=O)c2cc(C(=O)NCCN3CCOCC3)nc3cc(F)ccc23)c(C(F)(F)F)nn1Cc1ccc(C#N)cc1		340	
Cc1cc(C)c2nc(-c3ccco3)cc(C(=O)Nc3c(C)nn(Cc4ccc(F)cc4)c3C)c2c1			CLhep predicted [4]: 63.3 mL/min/kg
Cc1c(NC(=O)c2cc(C(N)=O)nc3cnccc23)c(C(F)(F)F)nn1Cc1ccc(C#N)cc1	61	10	
Cc1c(NC(=O)c2cc(C(=O)N3CC(O)C3)nc3cc(F)ccc23)c(C(F)(F)F)nn1Cc1ccc(C#N)cc1		340	
Cc1c(NC(=O)c2cc(C(N)=O)nc3cc(F)ccc23)c(C(F)(F)F)nn1Cc1ccc(OC(F)(F)F)cc1	370	5	
Cc1c(NC(=O)c2cc(-c3cccnc3)nc3ccccc23)c(C(F)(F)F)nn1Cc1ccc(C#N)cc1		74	
Cc1c(NC(=O)c2cc(-c3ccc(F)cc3)nc3ccccc23)c(C(F)(F)F)nn1Cc1ccc(C#N)cc1		920	
Cc1nn(Cc2ccc(C#N)cc2)c(C)c1NC(=O)c1cc(C(N)=O)nc2cc(F)ccc12			CLhep predicted [3]: 11.2 mL/min/kg; CLhep predicted [5]: 7.5 mL/min/kg; CLhep predicted [4]: 16.7 mL/min/kg
Cc1c(NC(=O)c2cc(C(N)=O)nc3cc(F)c(F)cc23)c(C(F)(F)F)nn1Cc1ccc(C#N)cc1	180	2	
